IC50 data for 25 molecules are collected here from article PMC9868654, “Discovery of a potent olaparib–chlorambucil hybrid inhibitor of PARP1 for the treatment of cancer” (Frontiers in Pharmacology, 2023).

Sequence of PARP1 (P09874 whole entry): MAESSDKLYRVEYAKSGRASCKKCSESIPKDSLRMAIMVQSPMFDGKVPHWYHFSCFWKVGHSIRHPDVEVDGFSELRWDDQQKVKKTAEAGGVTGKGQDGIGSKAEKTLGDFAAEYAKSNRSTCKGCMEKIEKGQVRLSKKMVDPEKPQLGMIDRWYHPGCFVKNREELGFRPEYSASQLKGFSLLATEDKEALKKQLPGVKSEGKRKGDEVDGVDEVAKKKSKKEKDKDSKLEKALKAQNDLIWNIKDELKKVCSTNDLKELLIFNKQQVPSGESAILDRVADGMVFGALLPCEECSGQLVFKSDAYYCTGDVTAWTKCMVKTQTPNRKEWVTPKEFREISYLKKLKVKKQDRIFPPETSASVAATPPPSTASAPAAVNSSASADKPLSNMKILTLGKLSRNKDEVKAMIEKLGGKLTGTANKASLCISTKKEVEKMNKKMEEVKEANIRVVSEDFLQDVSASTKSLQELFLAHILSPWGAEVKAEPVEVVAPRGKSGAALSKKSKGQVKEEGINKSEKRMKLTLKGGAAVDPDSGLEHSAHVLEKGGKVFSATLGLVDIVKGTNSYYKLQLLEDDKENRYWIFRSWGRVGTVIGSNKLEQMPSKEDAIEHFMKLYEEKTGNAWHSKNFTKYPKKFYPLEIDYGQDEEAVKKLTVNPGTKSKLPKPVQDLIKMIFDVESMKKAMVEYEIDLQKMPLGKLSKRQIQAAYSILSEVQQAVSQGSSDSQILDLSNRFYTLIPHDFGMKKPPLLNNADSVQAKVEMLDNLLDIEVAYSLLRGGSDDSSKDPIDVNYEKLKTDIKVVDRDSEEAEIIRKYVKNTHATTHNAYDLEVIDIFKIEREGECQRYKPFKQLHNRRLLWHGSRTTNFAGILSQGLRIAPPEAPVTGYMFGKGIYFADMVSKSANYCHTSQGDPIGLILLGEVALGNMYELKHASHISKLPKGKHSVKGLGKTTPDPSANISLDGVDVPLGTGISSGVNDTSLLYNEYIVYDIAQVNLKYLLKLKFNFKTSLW

The first assay has as its target PARP1 (Homo sapiens, UniProt P09874). Nature of the assay: PARP1 enzyme inhibitory assay. The settings on record: Table 1, A series; mean of three experiments. Format: biochemical.
Usually IC50 stands for the concentration needed to halve the response being measured. Read a high IC50 as weaker potency in that assay. `O=C(c1ccc(F)cc1)N1CCN(Cc2cc(Cc3n[nH]c(=O)c4ccccc34)ccc2F)CC1` [A1, 4-(4-Fluoro-3-((4-(4-fluorobenzoyl)piperazin-1-yl)methyl)benzyl)phthalazin-1(2H)-one] yielded an IC50 of 31.2 ± 2.4 nM.

For `O=C(c1ccccc1F)N1CCN(Cc2cc(Cc3n[nH]c(=O)c4ccccc34)ccc2F)CC1` [A2, 4-(4-Fluoro-3-((4-(2-fluorobenzoyl)piperazin-1-yl)methyl)benzyl)phthalazin-1(2H)-one], the IC50 is 29.4 ± 2.2 nM.

As to `O=C(c1cccc(F)c1)N1CCN(Cc2cc(Cc3n[nH]c(=O)c4ccccc34)ccc2F)CC1` [A3, 4-(4-Fluoro-3-((4-(3-fluorobenzoyl)piperazin-1-yl)methyl)benzyl)phthalazin-1(2H)-one], the half-inhibitory concentration (IC50) worked out at 17.6 ± 1.3 nM.

Turning to `O=C(c1ccc(C(F)(F)F)cc1)N1CCN(Cc2cc(Cc3n[nH]c(=O)c4ccccc34)ccc2F)CC1` [A4, 4-(4-Fluoro-3-((4-(4-(trifluoromethyl)benzoyl)piperazin-1-yl)methyl)benzyl)phthalazin-1(2H)-one], the midpoint of inhibition, the IC50, lay at 42.2 ± 4.1 nM. Against the preceding molecule, the IC50 is about 2.4-fold higher.

`O=C(c1ccccc1C(F)(F)F)N1CCN(Cc2cc(Cc3n[nH]c(=O)c4ccccc34)ccc2F)CC1` [A5, 4-(4-Fluoro-3-((4-(2-(trifluoromethyl)benzoyl)piperazin-1-yl)methyl)benzyl)phthalazin-1(2H)-one] had an IC50 of 33.2 ± 3.1 nM.

Take `O=C(c1cccc(C(F)(F)F)c1)N1CCN(Cc2cc(Cc3n[nH]c(=O)c4ccccc34)ccc2F)CC1` [A6, 4-(4-Fluoro-3-((4-(3-(trifluoromethyl)benzoyl)piperazin-1-yl)methyl)benzyl)phthalazin-1(2H)-one]: the IC50 was above 50 nM.

Consider `O=C(c1ccccc1Cl)N1CCN(Cc2cc(Cc3n[nH]c(=O)c4ccccc34)ccc2F)CC1` [A7, 4-(3-((4-(2-Chlorobenzoyl)piperazin-1-yl)methyl)-4-fluorobenzyl)phthalazin-1(2H)-one], for which the IC50 worked out at 24.6 ± 2.1 nM.

`O=C(c1cccc(Br)c1)N1CCN(Cc2cc(Cc3n[nH]c(=O)c4ccccc34)ccc2F)CC1` [A8, 4-(3-((4-(3-Bromobenzoyl)piperazin-1-yl)methyl)-4-fluorobenzyl)phthalazin-1(2H)-one] registered an IC50 of 22.5 ± 2.1 nM.

For the molecule `Cc1ccccc1C(=O)N1CCN(Cc2cc(Cc3n[nH]c(=O)c4ccccc34)ccc2F)CC1` [A9, 4-(4-Fluoro-3-((4-(2-methylbenzoyl)piperazin-1-yl)methyl)benzyl)phthalazin-1(2H)-one], the 50% inhibitory concentration (IC50) is 12.6 ± 1.1 nM. Against the preceding molecule, the IC50 is about 1.8-fold lower.

In the case of `CCc1ccc(C(=O)N2CCN(Cc3cc(Cc4n[nH]c(=O)c5ccccc45)ccc3F)CC2)cc1` [A10, 4-(3-((4-(4-Ethylbenzoyl)piperazin-1-yl)methyl)-4-fluorobenzyl)phthalazin-1(2H)-one], the IC50 came to 21.4 ± 1.4 nM.

`COc1ccccc1C(=O)N1CCN(Cc2cc(Cc3n[nH]c(=O)c4ccccc34)ccc2F)CC1` [A11, 4-(4-Fluoro-3-((4-(2-methoxybenzoyl)piperazin-1-yl)methyl)benzyl)phthalazin-1(2H)-one] came in with a concentration for half-maximal inhibition (IC50) of 29.4 ± 2.3 nM.

Take `O=C(c1ccccc1)N1CCN(Cc2cc(Cc3n[nH]c(=O)c4ccccc34)ccc2F)CC1` [A12, 4-(3-((4-Benzoylpiperazin-1-yl)methyl)-4-fluorobenzyl)phthalazin-1(2H)-one]: the IC50 is above 50 nM.

In turn, `COc1ccc(C(=O)N2CCN(Cc3cc(Cc4n[nH]c(=O)c5ccccc45)ccc3F)CC2)cc1` [A13, 4-(4-Fluoro-3-((4-(4-methoxybenzoyl)piperazin-1-yl)methyl)benzyl)phthalazin-1(2H)-one] showed an IC50 above 50 nM.

The molecule `NC(=O)C1CCN(Cc2cc(Cc3n[nH]c(=O)c4ccccc34)ccc2F)CC1` [A14, 1-(2-Fluoro-5-((4-oxo-3,4-dihydrophthalazin-1-yl)methyl)benzyl)piperidine-4-carboxamide] had an IC50 above 50 nM.

`O=c1[nH]nc(Cc2ccc(F)c(CN3CCN(Cc4ccc5c(c4)OCO5)CC3)c2)c2ccccc12` [A15, 4-(3-((4-(Benzo[d][1,3]dioxol-5-ylmethyl)piperazin-1-yl)methyl)-4-fluorobenzyl)phthalazin-1(2H)-one] yielded a 50% inhibitory concentration (IC50) above 50 nM.

Regarding `O=c1[nH]nc(Cc2ccc(F)c(CN3CCC(N4CCCCC4)CC3)c2)c2ccccc12` [A16, 4-(3-([1,4′-Bipiperidin]-1′-ylmethyl)-4-fluorobenzyl)phthalazin-1(2H)-one], the half-inhibitory concentration (IC50) was above 50 nM.

As to `COC(=O)C1CCN(Cc2cc(Cc3n[nH]c(=O)c4ccccc34)ccc2F)CC1` [A17, Methyl1-(2-fluoro-5-((4-oxo-3,4-dihydrophthalazin-1-yl)methyl)benzyl)piperidine-4-carboxylate], the IC50 was above 50 nM.

For `O=c1[nH]nc(Cc2ccc(F)c(CN3CCC(Cc4ccccc4)CC3)c2)c2ccccc12` [A18, 4-(3-((4-Benzylpiperidin-1-yl)methyl)-4-fluorobenzyl)phthalazin-1(2H)-one], the concentration for half-maximal inhibition (IC50) is above 50 nM.

In turn, `O=C(c1ccc2c(c1)OCO2)N1CCN(Cc2cc(Cc3n[nH]c(=O)c4ccccc34)ccc2F)CC1` [A20, 4-(3-((4-(Benzo[d][1,3]dioxole-5-carbonyl)piperazin-1-yl)methyl)-4-fluorobenzyl)phthalazin-1(2H)-one] had an IC50 of 12.6 ± 0.9 nM.

With `O=C(C1CC1)N1CCN(Cc2cc(Cc3n[nH]c(=O)c4ccccc34)ccc2F)CC1` [A21, 4-(3-((4-(Cyclopropanecarbonyl)piperazin-1-yl)methyl)-4-fluorobenzyl)phthalazin-1(2H)-one], the half-maximal inhibitory concentration (IC50) worked out at 8.4 ± 0.4 nM.

As to `O=C(C1CCC(F)(F)CC1)N1CCN(Cc2cc(Cc3n[nH]c(=O)c4ccccc34)ccc2F)CC1` [A22, 4-(3-((4-(4,4-Difluorocyclohexane-1-carbonyl)piperazin-1-yl)methyl)-4-fluorobenzyl) phthalazin-1(2H)-one], the IC50 is 9.3 ± 0.3 nM.

As to `O=C(C1CCCCC1)N1CCN(Cc2cc(Cc3n[nH]c(=O)c4ccccc34)ccc2F)CC1` [A23, 4-(3-((4-(Cyclohexanecarbonyl)piperazin-1-yl)methyl)-4-fluorobenzyl)phthalazin-1(2H)-one], the IC50 came to 10.1 ± 0.6 nM.

The assay is the same for the next values; noted with them: Table 2, B and C series; mean of three experiments.
For `CC(C)CNNC(=O)c1cc(Cc2n[nH]c(=O)c3ccccc23)ccc1F` [B4, 2-Fluoro-N′-isobutyl-5-((4-oxo-3,4-dihydrophthalazin-1-yl)methyl)benzohydrazide], half-maximal inhibition (IC50) required 11.8 ± 1.3 nM.

`CCCCCNNC(=O)c1cc(Cc2n[nH]c(=O)c3ccccc23)ccc1F` [B5, 2-Fluoro-5-((4-oxo-3,4-dihydrophthalazin-1-yl)methyl)-N′-pentylbenzohydrazide]: the concentration for half-maximal inhibition (IC50) was found to be 5.2 ± 0.4 nM.

`CCCCCCNNC(=O)c1cc(Cc2n[nH]c(=O)c3ccccc23)ccc1F` [B6, 2-Fluoro-N′-hexyl-5-((4-oxo-3,4-dihydrophthalazin-1-yl)methyl)benzohydrazide] returned a half-inhibitory concentration (IC50) of 9.4 ± 0.8 nM.
